Reference: the supplement of paper PMC10883282
± gives the standard deviation of the averaged measurements.

Test system: RD-ES
Test: relative viability vs DMSO control (72 h) (fraction); higher = more viable cells
In short: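 Sarcoma cell lines went into 384-well plates at densities chosen to reach 80–90% confluence. After 24 h, each well received 2.5 µl of serially diluted compound, with source plates running from 10 mM to 0.0002 mM, and the plates were kept 72 h at 37 °C, 5% CO2, alongside 0.1% DMSO vehicle and a 5 µM positive control. Relative viability was derived from ATPLite readings as percent growth and averaged over up to triplicate wells. The data were then rescaled so that 1 stands for full and 0 for none.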

Question: Which relative viability (0.00017 µM) does the source give for `CO[C@H]1C[C@@H]2CC[C@@H](C)[C@@](O)(O2)C(=O)C(=O)N2CCCC[C@H]2C(=O)O[C@H]([C@H](C)C[C@@H]2CC[C@@H](OP(C)(C)=O)[C@H](OC)C2)CC(=O)[C@H](C)/C=C(\C)[C@@H](O)[C@@H](OC)C(=O)[C@H](C)C[C@H](C)/C=C/C=C/C=C/1C` [Ridaforolimus] here?
Answer: The relative viability was 0.988 ± 0.013.

Question: What about the relative viability (0.00051 µM) of the same molecule?
Answer: The relative viability was 0.978 ± 0.019.

Question: And the relative viability (0.00152 µM)?
Answer: Its relative viability is 0.893 ± 0.039.

Question: And the relative viability (0.00457 µM)?
Answer: The relative viability was 0.804 ± 0.0091.

Question: And the relative viability (0.01372 µM)?
Answer: The relative viability was 0.754 ± 0.019.

Question: And the relative viability (0.04115 µM)?
Answer: Its relative viability is 0.71 ± 0.011.

Question: What about the relative viability (0.1235 µM) of the same molecule?
Answer: The relative viability was 0.6822 ± 0.0053.

Question: What about the relative viability (0.3704 µM) of the same molecule?
Answer: The relative viability was 0.674 ± 0.0087.

Question: And the relative viability (1.111 µM)?
Answer: Its relative viability is 0.693 ± 0.025.

Question: And the relative viability (3.333 µM)?
Answer: Its relative viability is 0.66 ± 0.026.

Question: And the relative viability (10 µM)?
Answer: Its relative viability is 0.627 ± 0.021.

Question: How did the relative viability (0.00017 µM) turn out when `CCc1cc2c(cc1N1CCC(N3CCOCC3)CC1)C(C)(C)c1[nH]c3cc(C#N)ccc3c1C2=O` [Alectinib] was run?
Answer: The relative viability was 0.9941 ± 0.0039.

Question: And the relative viability (0.00051 µM)?
Answer: The relative viability was 0.997 ± 0.011.

Question: And the relative viability (0.00152 µM)?
Answer: The relative viability was 0.993 ± 0.016.

Question: What about the relative viability (0.00457 µM) of the same molecule?
Answer: Its relative viability is 0.997 ± 0.025.

Question: What about the relative viability (0.01372 µM) of the same molecule?
Answer: Its relative viability is 0.988 ± 0.026.

Question: What about the relative viability (0.04115 µM) of the same molecule?
Answer: Its relative viability is 1 ± 0.029.

Question: What about the relative viability (0.1235 µM) of the same molecule?
Answer: Its relative viability is 1.03 ± 0.039.

Question: And the relative viability (0.3704 µM)?
Answer: The relative viability was 0.988 ± 0.036.

Question: And the relative viability (1.111 µM)?
Answer: The relative viability was 1.04 ± 0.029.

Question: What about the relative viability (3.333 µM) of the same molecule?
Answer: Its relative viability is 1.04 ± 0.014.

Question: What about the relative viability (10 µM) of the same molecule?
Answer: The relative viability was 1.03 ± 0.034.

Question: How did the relative viability (0.00017 µM) turn out when `C[C@@H](c1ccc2nccn2c1)n1nnc2ncc(-c3cnn(C)c3)nc21` [Volitinib] was run?
Answer: Its relative viability is 0.975 ± 0.017.

Question: What about the relative viability (0.00051 µM) of the same molecule?
Answer: The relative viability was 1.01 ± 0.019.

Question: And the relative viability (0.00152 µM)?
Answer: The relative viability was 0.98 ± 0.043.

Question: What about the relative viability (0.00457 µM) of the same molecule?
Answer: Its relative viability is 0.998 ± 0.022.

Question: What about the relative viability (0.01372 µM) of the same molecule?
Answer: The relative viability was 1 ± 0.018.

Question: And the relative viability (0.04115 µM)?
Answer: Its relative viability is 1 ± 0.013.

Question: What about the relative viability (0.1235 µM) of the same molecule?
Answer: Its relative viability is 1.02 ± 0.017.

Question: And the relative viability (0.3704 µM)?
Answer: The relative viability was 1.03 ± 0.025.

Question: What about the relative viability (1.111 µM) of the same molecule?
Answer: The relative viability was 0.989 ± 0.062.

Question: And the relative viability (3.333 µM)?
Answer: The relative viability was 0.995 ± 0.064.

Question: What about the relative viability (10 µM) of the same molecule?
Answer: Its relative viability is 0.972 ± 0.081.

Question: Which results are given for `CC1(C)CNc2cc(NC(=O)c3cccnc3NCc3ccncc3)ccc21` [Motesanib]?
Answer: relative viability (0.00017 µM): 0.969 ± 0.051; relative viability (0.00051 µM): 0.962 ± 0.048; relative viability (0.00152 µM): 0.957 ± 0.05; relative viability (0.00457 µM): 1.01 ± 0.038; relative viability (0.01372 µM): 0.964 ± 0.053; relative viability (0.04115 µM): 0.994 ± 0.033; relative viability (0.1235 µM): 0.989 ± 0.035; relative viability (0.3704 µM): 0.991 ± 0.04; relative viability (1.111 µM): 0.989 ± 0.038; relative viability (3.333 µM): 0.974 ± 0.062; relative viability (10 µM): 0.846 ± 0.015

Question: For `CN1CCN(c2ccc3nc(-c4c(N)c5c(F)cccc5[nH]c4=O)[nH]c3c2)CC1` [Dovitinib], which relative viability (0.00017 µM) is on record?
Answer: The relative viability was 0.955 ± 0.025.

Question: What about the relative viability (0.00051 µM) of the same molecule?
Answer: Its relative viability is 0.944 ± 0.067.

Question: And the relative viability (0.00152 µM)?
Answer: The relative viability was 0.949 ± 0.024.

Question: And the relative viability (0.00457 µM)?
Answer: Its relative viability is 0.943 ± 0.026.

Question: And the relative viability (0.01372 µM)?
Answer: The relative viability was 0.937 ± 0.014.

Question: What about the relative viability (0.04115 µM) of the same molecule?
Answer: Its relative viability is 0.893 ± 0.021.

Question: And the relative viability (0.1235 µM)?
Answer: The relative viability was 0.899 ± 0.045.

Question: And the relative viability (0.3704 µM)?
Answer: The relative viability was 0.829 ± 0.027.

Question: And the relative viability (1.111 µM)?
Answer: Its relative viability is 0.575 ± 0.013.

Question: And the relative viability (3.333 µM)?
Answer: Its relative viability is 0.24 ± 0.019.

Question: What about the relative viability (10 µM) of the same molecule?
Answer: The relative viability was 0.0296 ± 0.0072.

Question: `CNC(=O)c1cc(Oc2ccc(NC(=O)Nc3ccc(Cl)c(C(F)(F)F)c3)c(F)c2)ccn1` [Regorafenib] was tested. Which relative viability (0.00017 µM) did it give?
Answer: Its relative viability is 0.965 ± 0.055.

Question: What about the relative viability (0.00051 µM) of the same molecule?
Answer: The relative viability was 0.959 ± 0.053.

Question: And the relative viability (0.00152 µM)?
Answer: Its relative viability is 0.991 ± 0.036.

Question: What about the relative viability (0.00457 µM) of the same molecule?
Answer: The relative viability was 0.975 ± 0.047.

Question: And the relative viability (0.01372 µM)?
Answer: Its relative viability is 0.983 ± 0.042.

Question: And the relative viability (0.04115 µM)?
Answer: The relative viability was 0.979 ± 0.014.

Question: And the relative viability (0.1235 µM)?
Answer: Its relative viability is 0.986 ± 0.034.

Question: And the relative viability (0.3704 µM)?
Answer: The relative viability was 0.973 ± 0.052.

Question: What about the relative viability (1.111 µM) of the same molecule?
Answer: Its relative viability is 0.932 ± 0.058.

Question: What about the relative viability (3.333 µM) of the same molecule?
Answer: Its relative viability is 0.87 ± 0.043.

Question: What about the relative viability (10 µM) of the same molecule?
Answer: The relative viability was 0.776 ± 0.033.

Question: Which results are given for `Cc1nc(NC(=O)N2CCC[C@H]2C(N)=O)sc1-c1ccnc(C(C)(C)C(F)(F)F)c1` [Alpelisib]?
Answer: relative viability (0.00017 µM): 0.955 ± 0.069; relative viability (0.00051 µM): 0.949 ± 0.05; relative viability (0.00152 µM): 0.95 ± 0.05; relative viability (0.00457 µM): 0.944 ± 0.046; relative viability (0.01372 µM): 0.894 ± 0.017; relative viability (0.04115 µM): 0.852 ± 0.028; relative viability (0.1235 µM): 0.733 ± 0.025; relative viability (0.3704 µM): 0.641 ± 0.029; relative viability (1.111 µM): 0.559 ± 0.0059; relative viability (3.333 µM): 0.485 ± 0.025; relative viability (10 µM): 0.375 ± 0.009

Question: `CCN1CCN(Cc2ccc(Nc3ncc(F)c(-c4cc(F)c5nc(C)n(C(C)C)c5c4)n3)nc2)CC1` [Abemaciclib] was tested. Which relative viability (0.00017 µM) did it give?
Answer: The relative viability was 0.975 ± 0.016.

Question: What about the relative viability (0.00051 µM) of the same molecule?
Answer: The relative viability was 0.9649 ± 0.0077.

Question: What about the relative viability (0.00152 µM) of the same molecule?
Answer: Its relative viability is 0.988 ± 0.02.

Question: And the relative viability (0.00457 µM)?
Answer: Its relative viability is 0.961 ± 0.027.

Question: What about the relative viability (0.01372 µM) of the same molecule?
Answer: The relative viability was 0.908 ± 0.047.

Question: And the relative viability (0.04115 µM)?
Answer: The relative viability was 0.771 ± 0.038.

Question: What about the relative viability (0.1235 µM) of the same molecule?
Answer: Its relative viability is 0.638 ± 0.014.

Question: What about the relative viability (0.3704 µM) of the same molecule?
Answer: Its relative viability is 0.544 ± 0.015.

Question: And the relative viability (1.111 µM)?
Answer: Its relative viability is 0.526 ± 0.074.

Question: And the relative viability (3.333 µM)?
Answer: Its relative viability is 0.447 ± 0.057.

Question: What about the relative viability (10 µM) of the same molecule?
Answer: The relative viability was 0.292 ± 0.023.

Question: How did the relative viability (0.00017 µM) turn out when `CC[C@H](Nc1ncnc2[nH]cnc12)c1nc2cccc(F)c2c(=O)n1-c1ccccc1` [Idelalisib] was run?
Answer: The relative viability was 0.9939 ± 0.0089.

Question: And the relative viability (0.00051 µM)?
Answer: Its relative viability is 0.99 ± 0.033.

Question: And the relative viability (0.00152 µM)?
Answer: The relative viability was 0.977 ± 0.04.

Question: And the relative viability (0.00457 µM)?
Answer: The relative viability was 0.984 ± 0.037.

Question: What about the relative viability (0.01372 µM) of the same molecule?
Answer: The relative viability was 0.977 ± 0.033.

Question: And the relative viability (0.04115 µM)?
Answer: Its relative viability is 0.98 ± 0.019.

Question: What about the relative viability (0.1235 µM) of the same molecule?
Answer: Its relative viability is 0.982 ± 0.028.

Question: And the relative viability (0.3704 µM)?
Answer: The relative viability was 0.97 ± 0.027.

Question: And the relative viability (1.111 µM)?
Answer: The relative viability was 0.909 ± 0.026.

Question: What about the relative viability (3.333 µM) of the same molecule?
Answer: Its relative viability is 0.88 ± 0.034.

Question: What about the relative viability (10 µM) of the same molecule?
Answer: Its relative viability is 0.744 ± 0.019.

Question: For `C=CC(=O)N1CCC[C@@H](n2nc(-c3ccc(Oc4ccccc4)cc3)c3c(N)ncnc32)C1` [Ibrutinib], which relative viability (0.00017 µM) is on record?
Answer: Its relative viability is 0.985 ± 0.032.

Question: And the relative viability (0.00051 µM)?
Answer: Its relative viability is 0.967 ± 0.043.

Question: What about the relative viability (0.00152 µM) of the same molecule?
Answer: The relative viability was 0.993 ± 0.05.

Question: And the relative viability (0.00457 µM)?
Answer: The relative viability was 0.97 ± 0.038.

Question: And the relative viability (0.01372 µM)?
Answer: Its relative viability is 0.976 ± 0.04.

Question: What about the relative viability (0.04115 µM) of the same molecule?
Answer: The relative viability was 0.988 ± 0.032.

Question: What about the relative viability (0.1235 µM) of the same molecule?
Answer: Its relative viability is 0.957 ± 0.034.

Question: And the relative viability (0.3704 µM)?
Answer: The relative viability was 0.969 ± 0.015.

Question: And the relative viability (1.111 µM)?
Answer: The relative viability was 0.989 ± 0.04.

Question: What about the relative viability (3.333 µM) of the same molecule?
Answer: Its relative viability is 0.957 ± 0.031.

Question: What about the relative viability (10 µM) of the same molecule?
Answer: The relative viability was 0.882 ± 0.013.
